Experimental data: article PMC8929578, “In vitro and in silico evaluation of Ononis isoflavonoids as molecules targeting the central nervous system” (PLoS ONE, 2022)
Where “and” joins values, the source holds several entries; their conditions need not be identical. Equal values may be shown once. Read-outs that look alike come from different tables or passages of the source.

How the values were obtained:
MAO-B vs MAO-A = assay: Selectivity index of ChEMBl reference structures (MAO-A and MAO-B IC50); assay type: biochemical, human; conditions: for Selectivity: selectivity index calculated from ChEMBl IC50 values of MAO-A and MAO-B
Monoamine oxidase B = biological target: T1, Monoamine oxidase B (Homo sapiens, UniProt P27338); conditions: cited from earlier work
T1 sequence (P27338 2-520): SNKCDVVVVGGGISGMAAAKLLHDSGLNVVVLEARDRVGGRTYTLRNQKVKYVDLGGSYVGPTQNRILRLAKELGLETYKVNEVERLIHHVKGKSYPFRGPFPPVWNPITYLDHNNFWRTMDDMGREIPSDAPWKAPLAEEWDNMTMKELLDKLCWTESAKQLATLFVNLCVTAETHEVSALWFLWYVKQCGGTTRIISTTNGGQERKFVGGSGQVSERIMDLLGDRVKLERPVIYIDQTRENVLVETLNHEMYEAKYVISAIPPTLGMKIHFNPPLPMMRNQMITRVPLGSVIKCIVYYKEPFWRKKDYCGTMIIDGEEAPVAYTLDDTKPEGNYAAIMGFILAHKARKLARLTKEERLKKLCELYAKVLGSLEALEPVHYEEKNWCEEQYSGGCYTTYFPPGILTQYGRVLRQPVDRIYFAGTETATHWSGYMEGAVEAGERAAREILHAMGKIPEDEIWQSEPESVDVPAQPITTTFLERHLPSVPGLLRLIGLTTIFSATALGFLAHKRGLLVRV

Monoamine oxidase A = biological target: T2, Monoamine oxidase A (Homo sapiens, UniProt P21397); conditions: cited from earlier work
T2 sequence (P21397 1-527): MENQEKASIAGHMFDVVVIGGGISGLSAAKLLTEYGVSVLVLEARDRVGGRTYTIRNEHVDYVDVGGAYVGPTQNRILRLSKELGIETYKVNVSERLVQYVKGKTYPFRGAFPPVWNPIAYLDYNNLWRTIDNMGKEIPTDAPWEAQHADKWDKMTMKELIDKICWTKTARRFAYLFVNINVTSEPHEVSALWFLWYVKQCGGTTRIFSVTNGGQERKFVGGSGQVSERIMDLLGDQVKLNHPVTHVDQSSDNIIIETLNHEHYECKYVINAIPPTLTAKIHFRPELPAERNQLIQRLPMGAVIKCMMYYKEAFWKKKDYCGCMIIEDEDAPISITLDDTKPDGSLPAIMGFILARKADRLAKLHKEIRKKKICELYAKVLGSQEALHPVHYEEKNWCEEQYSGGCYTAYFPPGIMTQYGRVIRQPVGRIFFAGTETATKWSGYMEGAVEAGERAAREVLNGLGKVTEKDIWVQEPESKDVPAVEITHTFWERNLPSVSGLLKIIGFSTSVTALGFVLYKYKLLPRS

| SMILES | Selectivity (MAO-B vs MAO-A) | further results |
| --- | --- | --- |
| c1ccc2c(c1)OCC(C1=NCCN1)O2 (centres unmarked) [CHEMBL10316, IDAZOXAN] | – | Selectivity index (MAO-B vs MAO-A; MAO-A IC50 / MAO-B IC50 of ChEMBL reference structures): 1; pChEMBL Value, Type B (Monoamine oxidase B; MAO-B, ref ChEMBL database): 6; IC50 (Monoamine oxidase B; MAO-B, ref ChEMBL database, read-out: Standard Value (IC50), Type B): 1000 nM; pChEMBL Value, MAO B (Monoamine oxidase B; human enzyme, lines marked B, ref ChEMBl database): 6; IC50 (Monoamine oxidase B; human enzyme, lines marked B, ref ChEMBl database, read-out: Standard Value (IC50), MAO B): 1000 nM; pChEMBL Value, Type A (Monoamine oxidase A; MAO-A, ref ChEMBL database): 6; pChEMBL Value, MAO A (Monoamine oxidase A; human enzyme, ref ChEMBl database): 6; IC50 (Monoamine oxidase A; read-out: Standard Value (IC50), MAO A, human enzyme, ref ChEMBl database): 1000 nM; IC50 (Monoamine oxidase A; read-out: Standard Value (IC50), Type A, MAO-A, ref ChEMBL database): 1000 nM |
| COc1ccc(C2CC(c3ccc(O)cc3)=NN2C(C)=O)cc1 (centres unmarked) [CHEMBL65761] | 0.00125 | – |
| O=C1/C(=C/c2ccc(O)cc2)COc2cc(O)cc(O)c21 [CHEMBL1077616] | – | IC50 (Monoamine oxidase B; human enzyme, closest reference structures, ref ChEMBl database, read-out: IC50 values (MAO-B)): 8710 nM |
| O=C1/C(=C/c2ccc(O)c(O)c2)COc2ccccc21 [CHEMBL1766558] | 33.7319 and 33.73 | – |
| O=C(Nc1ccc(O)c(O)c1)c1cc(=O)c2ccccc2o1 [CHEMBL1814057] | 0.07 | – |
| O=C(Nc1ccc(O)cc1)c1coc2ccccc2c1=O [CHEMBL1814064] | 74.375 and 74.38 | – |
| O=C(Nc1ccc(O)c(O)c1)c1coc2ccccc2c1=O [CHEMBL1814066] | 2.69 | – |
| O=C1/C(=C/c2ccc(N3CCOCC3)cc2)Oc2cc(O)cc(O)c21 [CHEMBL1814450] | 3.176 | – |
| O=c1c2ccccc2sc2cc(O)cc(O)c12 [CHEMBL2018439, 1,3-Dihydroxythioxanthone] | 0.9333 | – |
| CN(C)c1ccc(/C=C2\Oc3cc(O)cc(O)c3C2=O)cc1 [CHEMBL2288402] | 0.04 and 0.03923 | – |
| O=C1/C(=C/c2ccc(N3CCCC3)cc2)Oc2cc(O)cc(O)c21 [CHEMBL3786282] | 1.1688 | – |
| CCN(CC)c1ccc(/C=C2\Oc3cc(O)cc(O)c3C2=O)cc1 [CHEMBL3786747] | 0.3443 | – |
| CCN(C)c1ccc(/C=C2\Oc3cc(O)cc(O)c3C2=O)cc1 [CHEMBL3786785] | 0.03453 | – |
| O=C1/C(=C/c2ccc(O)cc2)Cc2cc(O)ccc21 [CHEMBL3890408] | 0.6095 and 0.61 | – |
| O=C1/C(=C/c2cccc(O)c2)Cc2cc(O)ccc21 [CHEMBL3891485] | 1.242 and 1.24 | – |
| N#Cc1ccc(/C=C2\Cc3cc(O)ccc3C2=O)cc1 [CHEMBL3900500] | 6.582 | – |
| O=C1/C(=C/c2ccc(Cl)cc2)Cc2cc(O)ccc21 [CHEMBL3907033] | 57 | – |
| COc1cccc(/C=C2\Cc3cc(O)ccc3C2=O)c1 [CHEMBL3918471] | 2.527 | – |
| O=C1/C(=C/c2cccc(Cl)c2)Cc2cc(O)ccc21 [CHEMBL3924440] | 5.233 | – |
| O=C1/C(=C/c2ccc(F)cc2)Cc2cc(O)ccc21 [CHEMBL3933900] | 14.4468 | – |
| O=C1/C(=C/c2ccc(Br)cc2)Cc2cc(O)ccc21 [CHEMBL3950873] | 198.113 | – |
